The subject of series [1] is histone deacetylase (HDAC). As to the kind of experiment: HDAC inhibition screening assay using an aminocoumarin derivative of an omega-acetylated lysine as substrate. The format is biochemical. The note with it: compound concentration 10 nM. As for the experimental part:
To measure the inhibitory properties of the compounds of the invention, a screening assay was performed using an aminocoumarin derivative of an omega-acetylated lysine as substrate for the enzmye. This assay has been described in detail in the literature (Hoffmann, K., et al., Nucleic Acids Res. 27 (1999)2057-2058). Using the protocol described therein, there was measured the inhibitory effect of the compounds at a concentration of 10 nM.

The term melting point denotes the temperature, or range, at which the solid turns liquid.

`O=C(CCCCOc1ccc2c(c1)[nH]c1ccccc12)NO` [Example 7, 5-(9H-Carbazol-2-yloxy)-pentanoic Acid Hydroxyamide]: the “Inhibitory effect at 10 nM in %” value in series [1] amounted to 69%. With `O=C(CCCCCCCOc1cccc2[nH]c3ccccc3c12)NO` [Example 4, 8-(9H-Carbazol-4-yloxy)-octanoic Acid Hydroxyamide], the “Inhibitory effect at 10 nM in %” value in series [1] is recorded as 97%. Same read-out and setting: the same measure for `O=C(CCCCCCCOc1ccc2c(c1)C(O)c1ccccc1-2)NO` (racemic) [Example 2, rac-8-(9-Hydroxy-9H-fluoren-2-yloxy)-octanoic Acid Hydroxyamide]: 79%; for `O=C(CCCCCCCOc1ccc2c(c1)C(=O)c1ccccc1CO2)NO` [Example 1, 8-(11-Oxo-6,1 1-Dihydro-dibenzo[b,e]oxepin-2-yloxy)-octanoic Acid Hydroxyamide]: 62%. Consider `O=C(CCCCCCCOc1ccc2c(c1)[nH]c1ccccc12)NO` [Example 3, 8-(9H-Carbazol-2-yloxy)-octanoic Acid Hydroxyamide], for which, in series [1], the “Inhibitory effect at 10 nM in %” value amounted to 86%. With `O=C(CCCCCOc1ccc2c(c1)[nH]c1ccccc12)NO` [Example 6, 6-(9H-Carbazol-2-yloxy)-hexanoic Acid Hydroxyamide], the melting point was found to be 192 °C. For the same compound, the “Inhibitory effect at 10 nM in %” value in series [1] worked out at 80%. Compound `O=C(CCCCCCOc1ccc2c(c1)[nH]c1ccccc12)NO` [Example 5, 7-(9H-Carbazol-2-yloxy)-heptanoic Acid Hydroxyamide] gave a melting point of 198 °C. The “Inhibitory effect at 10 nM in %” value in series [1] came to 100%.

Values taken from US6512123B2, “Tricyclic alkylhydroxamate derivatives” (Hoffmann-La Roche Inc., priority 2001, dated 2003).
